From patent US20090239841A1, “Diaryl Ureas as CB1 Antagonists” (priority 2004, published 2009)
pIC50: −log10 of the molar value.

The compounds below were run against T1, hCB1 (Homo sapiens, UniProt P21554) (assay: Agonist-induced GTP binding (GTPγ35S) assay at CB1, Example 8). Conditions: IC50 at CB1, determined as described in Example 8; read-out: IC50.
T1 construct: made in house; host or cells: Sf9 insect cells (baculovirus), P2 membranes
Format: biochemical
In short: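 Membranes from Sf9 cells co-expressing hCB1 and heterotrimeric G-protein (10 μg protein) in Tris pH 7.4 buffer with 5 μM GDP. Test compounds (10^−10–10^−5 M) competed against 1 nM CP55,940 with […] GTPγ35S, 60 min at room temperature. Filter-bound radioactivity by scintillation, expressed as percent above basal.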

T1 sequence (P21554 whole entry): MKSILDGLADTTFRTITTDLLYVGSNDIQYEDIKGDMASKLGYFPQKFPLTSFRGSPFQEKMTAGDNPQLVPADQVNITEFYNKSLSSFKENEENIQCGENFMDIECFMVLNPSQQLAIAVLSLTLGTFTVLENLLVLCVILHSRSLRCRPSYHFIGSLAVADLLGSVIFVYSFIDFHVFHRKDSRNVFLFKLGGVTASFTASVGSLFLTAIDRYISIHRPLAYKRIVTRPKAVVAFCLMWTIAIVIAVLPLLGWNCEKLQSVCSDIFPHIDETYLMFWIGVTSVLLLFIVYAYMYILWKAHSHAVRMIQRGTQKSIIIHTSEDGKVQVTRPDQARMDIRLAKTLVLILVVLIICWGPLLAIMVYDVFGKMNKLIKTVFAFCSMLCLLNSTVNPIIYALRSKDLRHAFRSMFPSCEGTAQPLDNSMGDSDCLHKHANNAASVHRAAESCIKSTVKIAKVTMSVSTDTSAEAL

pIC50, > 5.70:
CCOC(=O)c1ccc(NC(=O)Nc2cccc(C#N)c2)cc1 [Compound 511, ethyl 4-({[(3-cyanophenyl)amino]carbonyl}amino)benzoate]
CCCc1ccc(NC(=O)Nc2cccc(Cl)c2)cc1 [Compound 335, 1-(3-chlorophenyl)-3-(4-propylphenyl)urea]
O=C(Nc1ccc([N+](=O)[O-])cc1)Nc1cccc(OC(F)F)c1 [Compound 566, 1-[3-(difluoromethoxy)phenyl]-3-(4-nitrophenyl)urea]
CCc1cccc(NC(=O)Nc2cccc(OC(C)C)c2)c1 [Compound 399, 1-(3-ethylphenyl)-3-(3-isopropoxyphenyl)urea]
CC(=O)c1ccc(NC(=O)Nc2cccc(Cl)c2)cc1 [Compound 342, 1-(4-acetylphenyl)-3-(3-chlorophenyl)urea]
Cc1ccc(NC(=O)Nc2cccc(OC(C)C)c2)cc1F [Compound 688, 1-(3-fluoro-4-methylphenyl)-3-(3-isopropoxyphenyl)urea]
CC(=O)c1ccc(NC(=O)Nc2ccc(C(=O)OC(C)C)cc2)cc1 [Compound 514, isopropyl 4-({[(4-acetylphenyl)amino]carbonyl}amino)benzoate]
COc1ccc(NC(=O)Nc2ccc(C)c(F)c2)cc1 [Compound 615, 1-(3-fluoro-4-methylphenyl)-3-(4-methoxyphenyl)urea]
O=C(Nc1ccc(F)cc1)Nc1ccc(OC(F)F)cc1 [Compound 373, 1-[4-(difluoromethoxy)phenyl]-3-(4-fluorophenyl)urea]
CCOC(=O)c1cccc(NC(=O)Nc2ccc(CC#N)cc2)c1 [Compound 714, ethyl 3-[({[4-(cyanomethyl)phenyl]amino}carbonyl)amino)benzoate]
O=C(Nc1cccc(F)c1)Nc1ccc2c(c1)CCC2 [Compound 431, 1-(2,3-dihydro-1H-inden-5-yl)-3-(3-fluorophenyl)urea]

Same assay, conditions: Table I; IC50 at CB1, GTP binding with 1 nM CP55,940; read-out: IC50

pIC50, > 5.70:
O=C(Nc1ccc(OC(F)F)cc1)Nc1cccc(F)c1 [Compound 16, N-[4-(difluoromethoxy)phenyl]-N′-(3-fluorophenyl)urea]
CCCc1ccc(NC(=O)Nc2ccc(C)cc2)cc1 [Compound 39, N-(4-methylphenyl)-N′-(4-propylphenyl)urea]
CCc1ccc(NC(=O)Nc2ccc(CC)cc2)cc1 [Compound 21, N,N′-bis(4-ethylphenyl)urea]

Same assay, conditions: Table II; IC50 at CB1, GTP binding with 1 nM CP55,940; read-out: IC50

pIC50, > 5.70:
CCOc1cccc(NC(=O)Nc2cccc(Cl)c2)c1 [Compound 232, N-(3-chlorophenyl)-N′-(3-ethoxyphenyl)urea]
COCc1ccc(NC(=O)Nc2cccc(C(C)=O)c2)cc1 [Compound 270, N-(3-acetylphenyl)-N′-[4-(methoxymethyl)phenyl]urea]
O=C(Nc1ccc(OC(F)F)cc1)Nc1ccc(OC(F)(F)F)cc1 [Compound 96, N-[4-(difluoromethoxy)phenyl]-N′-[4-(trifluoromethoxy)phenyl]urea]
CCc1ccc(NC(=O)Nc2ccc(OC)cc2)cc1 [Compound 228, N-(4-ethylphenyl)-N′-(4-methoxyphenyl)urea]
CCCOc1ccc(NC(=O)Nc2cccc(C)c2)cc1 [Compound 159, N-(3-methylphenyl)-N′-(4-propoxyphenyl)urea]
CCc1cccc(NC(=O)Nc2cccc(OC(C)C)c2)c1 [Compound 246, N-(3-ethylphenyl)-N′-(3-isopropoxyphenyl)urea]
CCCOc1ccc(NC(=O)Nc2cccc(C(C)=O)c2)cc1 [Compound 274, N-(3-acetylphenyl)-N′-(4-propoxyphenyl)urea]
Cc1noc(C)c1-c1cccc(NC(=O)Nc2ccc(OC(F)F)cc2)c1 [Compound 115, N-[4-(difluoromethoxy)phenyl]-N′-[3-(3,5-dimethylisoxazol-4-yl)phenyl]urea]
COCc1ccc(NC(=O)Nc2cccc(C#N)c2)cc1 [Compound 269, N-(3-cyanophenyl)-N′-[4-(methoxymethyl)phenyl]urea]
